The values that follow come from patent US20240352021A1 (DANA-FARBER CANCER INSTITUTE, INC., priority 2021, published 2024).

The target of one experiment is EGFR L858R (Homo sapiens, UniProt P00533, L858R). The experiment in a line: EGFR biochemical assay (headed HTRF-based; method describes Z'-LYTE), L858R. To be noted: Table 4. How it is done:
(§1) To measure the IC50 values of compounds herein against EGFR, a Z′-LYTE assay (ThermoFisher) was used. Briefly, 2.5 μL of different concentrations of the compounds in 4% DMSO were added to 5 μL kinase/peptide mixture in each well of a 384-well plate (Corning Cat. #3676). 2.5 μL of 4× ATP solution (4× ATP, 50 mM HEPES, pH 7.5, 0.01% BRIJ-35, 10 mM MgCl2, 1 mM EGTA) were added to each well. The plate was shaken for 30 seconds, and then incubated at room temperature for 60 minutes. 5 μL of a 1:100000 dilution of Development Reagent A was added to each well. The plate was then incubated for 60 mins at room temperature. 5 μL of the stop reagent was then added. The plate was subsequently read on a fluorescence plate reader, and the emissions ratio was calculated to determine the ratio of Ser/Thr 07 phosphorylated by the reaction. Emissions Ratio═Coumarin Emission (443 nm)/Flourescein Emission (520 nm).
(§2) HTRF-based EGFR assay data are provided below in Table 4.

For a further experiment, the target named is EGFR L858R/T790M (Homo sapiens, UniProt P00533, L858R/T790M). The experiment in a line: EGFR biochemical assay (headed HTRF-based; method describes Z'-LYTE), L858R/T790M. The settings on record: Table 4. The protocol: as §1, §2
Experiment [1] has as its target EGFR mutant L858R Ba/F3 cells (Homo sapiens, UniProt P00533, L858R, cells depend on it). The experiment in a line: Ba/F3 cell proliferation (Cell Titer Glo), EGFR L858R. Format: cell-based, murine. To be noted: 72 hours, Table 6, read-out: L858R BaF3. Summed up:
(§3)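 Retrovirally transduced, puromycin-selected Ba/F3 cells expressing EGFR L858R or L858R/C797S, grown in RPMI + 10% FBS, exposed to compounds for 72 h in triplicate. Viability by Cell Titer Glo ATP luminescence; IC50 from sigmoidal dose-response fit, binned A <0.1, B 0.1–0.5, C 0.5–2.5, D ≥2.5 μM.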

In experiment [2] the target is EGFR L858R/C797S Ba/F3 cells (Homo sapiens, UniProt P00533, C797S/L858R, cells depend on it). Put plainly: Ba/F3 cell proliferation (Cell Titer Glo), EGFR L858R/C797S. It is filed as cell-based, murine. The settings on record: 72 hours, Table 6. Summed up:
as §3

pIC50: −log10 of the molar value.

Chain of EGFR mutant L858R Ba/F3 cells (P00533 whole entry L858R): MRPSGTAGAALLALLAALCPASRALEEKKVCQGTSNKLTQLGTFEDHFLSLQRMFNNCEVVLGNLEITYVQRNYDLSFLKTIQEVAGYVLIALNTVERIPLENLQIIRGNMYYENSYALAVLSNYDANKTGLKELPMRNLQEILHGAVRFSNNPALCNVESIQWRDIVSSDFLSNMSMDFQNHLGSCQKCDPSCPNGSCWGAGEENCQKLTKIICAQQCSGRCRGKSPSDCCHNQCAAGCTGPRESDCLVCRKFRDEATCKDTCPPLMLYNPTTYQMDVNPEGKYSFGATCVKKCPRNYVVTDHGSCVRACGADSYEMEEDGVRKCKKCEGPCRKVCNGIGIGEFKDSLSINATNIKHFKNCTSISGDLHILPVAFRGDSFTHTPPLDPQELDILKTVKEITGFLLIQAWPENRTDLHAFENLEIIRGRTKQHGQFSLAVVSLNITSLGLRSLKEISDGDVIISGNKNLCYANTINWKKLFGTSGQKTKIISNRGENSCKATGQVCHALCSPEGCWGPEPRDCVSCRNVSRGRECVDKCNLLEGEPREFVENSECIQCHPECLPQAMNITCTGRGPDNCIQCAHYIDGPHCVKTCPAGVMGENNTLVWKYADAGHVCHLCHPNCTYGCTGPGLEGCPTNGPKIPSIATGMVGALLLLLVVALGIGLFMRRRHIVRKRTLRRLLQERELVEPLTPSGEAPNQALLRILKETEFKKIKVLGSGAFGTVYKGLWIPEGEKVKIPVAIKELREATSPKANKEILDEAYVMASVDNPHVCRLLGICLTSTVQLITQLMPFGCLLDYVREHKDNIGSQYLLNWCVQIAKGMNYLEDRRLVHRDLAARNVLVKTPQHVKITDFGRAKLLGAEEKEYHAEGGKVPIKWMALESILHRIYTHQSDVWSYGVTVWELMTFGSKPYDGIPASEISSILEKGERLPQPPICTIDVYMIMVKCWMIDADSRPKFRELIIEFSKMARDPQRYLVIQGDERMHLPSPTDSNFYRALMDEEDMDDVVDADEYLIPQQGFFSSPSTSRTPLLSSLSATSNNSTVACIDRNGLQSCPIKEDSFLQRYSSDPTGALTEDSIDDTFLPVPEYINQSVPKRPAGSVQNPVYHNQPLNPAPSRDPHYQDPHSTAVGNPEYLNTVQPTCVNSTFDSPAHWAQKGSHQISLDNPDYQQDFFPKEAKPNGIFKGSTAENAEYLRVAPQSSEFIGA
Chain of EGFR L858R/C797S Ba/F3 cells (P00533 whole entry C797S/L858R): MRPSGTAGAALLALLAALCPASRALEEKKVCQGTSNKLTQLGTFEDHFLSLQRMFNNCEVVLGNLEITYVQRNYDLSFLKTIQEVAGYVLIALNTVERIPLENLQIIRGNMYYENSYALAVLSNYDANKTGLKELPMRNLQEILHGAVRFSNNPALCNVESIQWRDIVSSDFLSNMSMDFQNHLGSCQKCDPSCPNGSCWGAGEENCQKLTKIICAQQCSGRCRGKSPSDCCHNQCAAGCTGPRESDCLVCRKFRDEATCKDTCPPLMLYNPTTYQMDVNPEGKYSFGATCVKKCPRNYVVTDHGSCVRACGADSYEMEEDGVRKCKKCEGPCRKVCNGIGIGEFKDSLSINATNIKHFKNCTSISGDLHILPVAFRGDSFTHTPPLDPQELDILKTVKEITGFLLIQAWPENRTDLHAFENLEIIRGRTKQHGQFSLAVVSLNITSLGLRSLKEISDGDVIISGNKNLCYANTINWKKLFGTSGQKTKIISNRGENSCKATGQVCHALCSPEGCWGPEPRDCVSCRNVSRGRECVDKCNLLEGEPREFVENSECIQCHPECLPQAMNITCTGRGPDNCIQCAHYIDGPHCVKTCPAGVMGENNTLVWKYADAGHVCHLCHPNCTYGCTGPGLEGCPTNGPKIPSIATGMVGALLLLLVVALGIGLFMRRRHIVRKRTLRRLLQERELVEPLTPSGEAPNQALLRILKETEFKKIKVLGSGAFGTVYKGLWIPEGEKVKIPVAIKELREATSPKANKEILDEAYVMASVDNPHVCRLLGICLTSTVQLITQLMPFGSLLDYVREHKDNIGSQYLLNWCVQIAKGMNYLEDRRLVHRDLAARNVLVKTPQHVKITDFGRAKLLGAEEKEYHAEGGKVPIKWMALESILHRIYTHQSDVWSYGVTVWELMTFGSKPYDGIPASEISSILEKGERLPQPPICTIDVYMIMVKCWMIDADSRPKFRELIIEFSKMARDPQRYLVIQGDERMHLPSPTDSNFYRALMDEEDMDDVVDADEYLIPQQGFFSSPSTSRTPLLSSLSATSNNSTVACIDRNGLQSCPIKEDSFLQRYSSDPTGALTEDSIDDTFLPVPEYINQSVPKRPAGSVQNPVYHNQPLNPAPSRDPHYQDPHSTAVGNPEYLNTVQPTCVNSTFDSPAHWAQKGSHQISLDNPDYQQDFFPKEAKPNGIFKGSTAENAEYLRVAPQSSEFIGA
Chain of EGFR L858R/T790M (P00533 25-1210 T790M/L858R): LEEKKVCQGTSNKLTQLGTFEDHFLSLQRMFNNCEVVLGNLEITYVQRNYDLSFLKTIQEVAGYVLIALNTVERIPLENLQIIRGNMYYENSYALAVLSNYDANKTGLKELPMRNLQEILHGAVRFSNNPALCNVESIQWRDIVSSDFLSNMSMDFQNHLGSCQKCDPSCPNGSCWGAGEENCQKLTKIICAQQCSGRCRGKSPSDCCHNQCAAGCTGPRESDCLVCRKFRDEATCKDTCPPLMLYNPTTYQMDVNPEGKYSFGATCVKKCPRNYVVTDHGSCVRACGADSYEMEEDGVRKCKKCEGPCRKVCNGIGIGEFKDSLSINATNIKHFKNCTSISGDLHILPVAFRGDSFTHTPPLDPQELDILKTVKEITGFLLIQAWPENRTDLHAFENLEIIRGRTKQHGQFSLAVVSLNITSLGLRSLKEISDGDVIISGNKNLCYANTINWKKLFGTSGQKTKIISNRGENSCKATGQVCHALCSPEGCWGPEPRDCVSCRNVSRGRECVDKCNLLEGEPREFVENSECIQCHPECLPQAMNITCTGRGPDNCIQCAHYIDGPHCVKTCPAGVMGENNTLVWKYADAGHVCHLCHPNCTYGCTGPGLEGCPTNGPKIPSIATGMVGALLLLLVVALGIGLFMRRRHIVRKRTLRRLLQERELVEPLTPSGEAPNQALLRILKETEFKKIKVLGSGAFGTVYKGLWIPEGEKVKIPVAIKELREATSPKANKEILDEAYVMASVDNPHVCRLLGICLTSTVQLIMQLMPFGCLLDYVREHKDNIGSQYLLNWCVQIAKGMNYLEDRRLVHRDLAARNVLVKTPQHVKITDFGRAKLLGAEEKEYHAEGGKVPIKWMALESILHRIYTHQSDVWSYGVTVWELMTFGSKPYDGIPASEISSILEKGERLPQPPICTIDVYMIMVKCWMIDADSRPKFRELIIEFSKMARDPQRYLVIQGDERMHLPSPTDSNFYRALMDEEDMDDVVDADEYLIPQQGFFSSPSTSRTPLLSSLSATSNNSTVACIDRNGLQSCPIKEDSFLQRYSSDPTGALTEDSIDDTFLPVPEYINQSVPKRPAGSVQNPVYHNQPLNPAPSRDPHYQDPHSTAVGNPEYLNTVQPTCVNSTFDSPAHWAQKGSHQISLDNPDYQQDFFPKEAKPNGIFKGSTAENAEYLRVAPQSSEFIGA
Chain of EGFR L858R (P00533 25-1210 L858R): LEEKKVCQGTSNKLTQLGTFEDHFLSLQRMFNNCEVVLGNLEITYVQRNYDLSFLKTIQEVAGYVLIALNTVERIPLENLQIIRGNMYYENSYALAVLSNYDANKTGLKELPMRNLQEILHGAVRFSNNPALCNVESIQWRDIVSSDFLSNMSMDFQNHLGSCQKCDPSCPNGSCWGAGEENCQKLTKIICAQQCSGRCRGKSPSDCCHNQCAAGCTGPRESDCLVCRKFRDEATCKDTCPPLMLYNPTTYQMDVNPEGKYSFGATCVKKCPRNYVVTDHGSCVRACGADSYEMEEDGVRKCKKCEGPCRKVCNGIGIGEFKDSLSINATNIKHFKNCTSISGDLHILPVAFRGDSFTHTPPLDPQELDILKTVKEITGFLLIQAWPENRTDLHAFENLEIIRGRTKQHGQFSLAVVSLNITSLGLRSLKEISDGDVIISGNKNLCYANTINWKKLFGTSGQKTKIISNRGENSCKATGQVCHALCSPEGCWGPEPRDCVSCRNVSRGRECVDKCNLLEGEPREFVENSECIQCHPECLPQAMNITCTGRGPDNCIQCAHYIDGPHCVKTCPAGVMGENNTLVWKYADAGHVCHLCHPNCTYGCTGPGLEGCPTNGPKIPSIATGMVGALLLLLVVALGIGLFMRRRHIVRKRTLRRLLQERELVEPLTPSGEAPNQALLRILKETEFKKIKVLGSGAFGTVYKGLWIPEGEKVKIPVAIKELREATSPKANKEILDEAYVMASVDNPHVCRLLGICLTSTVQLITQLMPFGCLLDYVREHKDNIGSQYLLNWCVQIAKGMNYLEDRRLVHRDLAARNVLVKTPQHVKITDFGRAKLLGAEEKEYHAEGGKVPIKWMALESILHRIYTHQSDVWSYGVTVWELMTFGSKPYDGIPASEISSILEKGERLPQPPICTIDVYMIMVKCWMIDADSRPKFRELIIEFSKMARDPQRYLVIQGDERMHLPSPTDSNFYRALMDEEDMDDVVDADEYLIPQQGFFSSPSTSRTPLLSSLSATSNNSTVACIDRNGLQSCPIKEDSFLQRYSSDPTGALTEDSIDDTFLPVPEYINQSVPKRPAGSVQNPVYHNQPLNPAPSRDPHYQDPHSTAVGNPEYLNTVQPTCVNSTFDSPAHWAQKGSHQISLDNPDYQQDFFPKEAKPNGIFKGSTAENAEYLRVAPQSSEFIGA

As for `C=CC(=O)N1CCC(N2Cc3cnc(Nc4ccc(N5CCN(C)CC5)cc4)nc3N(CC(F)F)C2=O)c2cccc(OC)c21` (stereo not shown) [Compound 134, 3-(1-acryloyl-8-methoxy-1,2,3,4-tetrahydroquinolin-4-yl)-1-(2,2-difluoroethyl)-7-((4-(4-methylpiperazin-1-yl)phenyl)amino)-3,4-dihydropyrimido[4,5-d]pyrimidin-2(1H)-one], the pIC50 is 7.41 at EGFR L858R and under 6.00 on EGFR L858R/T790M. Further, the figures for the GI50 in experiment [1] and in experiment [2] were under 0.1 µM and 0.1 to 0.5 µM, respectively.
The matching figures for `C=CC(=O)Nc1cccc(N2C(=O)N(C3CCN(C(=O)C=C)c4ccccc43)Cc3cnc(Nc4ccc(N5CCN(C)CC5)cc4)nc32)c1` (stereo not drawn) [Compound 158, N-[3-[7-[4-(4-methylpiperazin-1-yl)anilino]-2-oxo-S-(1-prop-2-enoyl-3,4-dihydro-2H-quinolin-4-yl)-4H-pyrimido[4,5-d]pyrimidin-1-yl]phenyl]prop-2-enamide]: 8.97, 9.15, under 0.1 µM and under 0.1 µM.
The matching figures for `C=CC(=O)N1CC[C@@H](N2Cc3cnc(Nc4ccc(N5CCN(C)CC5)cc4)nc3N(C)C2=O)c2cccc(C)c21` [Compound 141]: under 6.00, under 6.00, 0.1 to 0.5 µM and 0.1 to 0.5 µM.
In the case of `C=C(F)C(=O)N1CC[C@@H](N2Cc3cnc(Nc4cnn(CCO)c4)nc3N(C)C2=O)c2cccc(OC)c21` (single isomer, unassigned) [Compound 119], the pIC50 against EGFR L858R and against EGFR L858R/T790M was under 7.00 in each case. Besides, the GI50 in experiment [1] and in experiment [2] was at least 2.5 µM each time.
For the compound `C=CC(=O)N1CCC(N2Cc3cnc(Nc4ccc(N5CCN(C)CC5)cc4)nc3N(C)C2=O)c2cccc(OC)c21` (single isomer, unassigned) [Compound 123], the results for the pIC50 against EGFR L858R and against EGFR L858R/T790M were 7.20 and under 7.00, respectively. Further, the GI50 in experiment [1] and in experiment [2] was at least 2.5 µM each time.
For the compound `C=CC(=O)N1CC[C@H](N2Cc3cnc(Nc4ccc(N5CCN(C)CC5)cc4)nc3N(C)C2=O)C[C@@H]1CO` [Compound 146, 3-[(2R,4S)-2-(hydroxymethyl)-1-prop-2-enoyl-4-piperidyl]-1-methyl-7-[4-(4-methylpiperazin-1-yl)anilino]-4H-pyrimido[4,5-d]pyrimidin-2-one], the pIC50 at EGFR L858R and at EGFR L858R/T790M was under 6.00 in each case. Besides, the GI50 is 0.5 to 2.5 µM in experiment [1] and at least 2.5 µM in experiment [2].
On to `C=C(F)C(=O)N1CCC(N2Cc3cnc(Nc4cnn(CCO)c4)nc3-n3ccnc32)c2ccccc21` (stereo not shown) [001A], for which the negative-log IC50 (pIC50) against EGFR L858R and against EGFR L858R/T790M was under 7.00 throughout. Moreover, the GI50 in experiment [1] and in experiment [2] was at least 2.5 µM in each case.
Consider `[2H]C1(N2Cc3cnc(Nc4ccc(N5CCN(C)CC5)cc4)nc3N(C)C2=O)CCN(C(=O)C=C)c2c(OC)cccc21` (stereo not shown) [Compound 130, 3-(4-deuterio-8-methoxy-1-prop-2-enoyl-2,3-dihydroquinolin-4-yl)-1-methyl-7-[4-(4-methylpiperazin-1-yl)anilino]-4H-pyrimido[4,5-d]pyrimidin-2-one], for which the pIC50 at EGFR L858R was 7.37; on EGFR L858R/T790M, under 6.00. Also, the figures for the GI50 in experiment [1] and in experiment [2] were under 0.1 µM and 0.1 to 0.5 µM, respectively.
The matching figures for `C=CC(=O)N1CCC12CC(N1Cc3cnc(Nc4ccc(N5CCN(C)CC5)cc4)nc3N(C)C1=O)C2` (stereo not drawn) [Compound 142, 1-methyl-7-[4-(4-methylpiperazin-1-yl)anilino]-S-(1-prop-2-enoyl-1-azaspiro[3.3]heptan-6-yl)-4H-pyrimido[4,5-d]pyrimidin-2-one]: under 6.00, under 6.00, 0.5 to 2.5 µM and at least 2.5 µM.
As to `C=CC(=O)N1CC[C@H](N2Cc3cnc(Nc4ccc(N5CCN(C)CC5)cc4)nc3N(C3CC(O)C3)C2=O)c2cccc(C)c21` (stereo partly drawn) [Compound 152, 1-(3-hydroxycyclobutyl)-7-[4-(4-methylpiperazin-1-yl)anilino]-S-[(4S)-8-methyl-1-prop-2-enoyl-3,4-dihydro-2H-quinolin-4-yl]-4H-pyrimido[4,5-d]pyrimidin-2-one], the figures for the pIC50 on EGFR L858R and on EGFR L858R/T790M were 8.93 and under 6.00, respectively. Further, the GI50 in experiment [1] and in experiment [2] was under 0.1 µM throughout.
For the compound `C=C(CN1CC(N2Cc3cnc(Nc4ccc(N5CCN(C)CC5)cc4)nc3N(C)C2=O)C1)C(=O)O` [Compound 137, 2-[[3-[1-methyl-7-[4-(4-methylpiperazin-1-yl)anilino]-2-oxo-4H-pyrimido[4,5-d]pyrimidin-S-yl]azetidin-1-yl]methyl]prop-2-enoic acid], the pIC50 against EGFR L858R and against EGFR L858R/T790M was under 6.00 in each case. Also, the GI50 in experiment [1] and in experiment [2] was at least 2.5 µM throughout.
With `C=CC(=O)N1CCC(N2Cc3cnc(Nc4ccc(N5CCN(C)CC5)cc4)nc3N(C)C2=O)C(c2ccccc2)C1` (stereo not shown) [Compound 159], the pIC50 against EGFR L858R and on EGFR L858R/T790M was under 7.00 each time. The GI50 in experiment [1] was 0.5 to 2.5 µM; in experiment [2], at least 2.5 µM.
As to `[2H]C1(N2Cc3cnc(Nc4cnn(CCO)c4)nc3N(C)C2=O)CCN(C(=O)C=C)c2ccccc21` (stereo not shown) [Compound 127], the pIC50 against EGFR L858R was 8.92; against EGFR L858R/T790M, under 6.15. Further, the GI50 in experiment [1] and in experiment [2] was under 0.1 µM in each case.
As to `C=CC(=O)N(C)c1ccccc1CN1Cc2cnc(Nc3ccc(N4CCN(C)CC4)cc3)nc2N(C)C1=O` [Compound 139, N-methyl-N-[2-[[1-methyl-7-[4-(4-methylpiperazin-1-yl)anilino]-2-oxo-4H-pyrimido[4,5-d]pyrimidin-S-yl]methyl]phenyl]prop-2-enamide], the negative-log IC50 (pIC50) against EGFR L858R and at EGFR L858R/T790M was under 6.00 each time. The GI50 lay in the range of 0.1 to 0.5 µM in experiment [1] and 0.5 to 2.5 µM in experiment [2].
On to `C=CC(=O)N1CC[C@H](N2Cc3cnc(Nc4ccc(N5CCN(C)CC5)cc4)nc3N(C3CCOC3)C2=O)c2cccc(C)c21` (stereo partly drawn) [Compound 151, 7-[4-(4-methylpiperazin-1-yl)anilino]-S-[(4S)-8-methyl-1-prop-2-enoyl-3,4-dihydro-2H-quinolin-4-yl]-1-tetrahydrofuran-S-yl-4H-pyrimido[4,5-d]pyrimidin-2-one], for which the pIC50 against EGFR L858R was 9.07; against EGFR L858R/T790M, under 6.00. The GI50 in experiment [1] and in experiment [2] was under 0.1 µM throughout.
On to `C=CC(=O)N1CC[C@H](N2Cc3cnc(Nc4cnn(CCO)c4)nc3N(C)C2=O)[C@@H]2CCC[C@@H]21` [Compound 126, 7-[[1-(2-hydroxyethyl)pyrazol-4-yl]amino]-1-methyl-S-(1-prop-2-enoyl-2,3,4,4a, 5,6,7,7a-octahydrocyclopenta[b]pyridin-4-yl)-4H-pyrimido[4,5-d]pyrimidin-2-one], for which the negative-log IC50 (pIC50) against EGFR L858R and at EGFR L858R/T790M was under 7.00 throughout. Besides, the GI50 in experiment [1] and in experiment [2] was at least 2.5 µM each time.
With `C=CC(=O)N1C[C@@H](N2Cc3cnc(Nc4ccc(N5CCN(C)CC5)cc4)nc3N(C)C2=O)C[C@@H]1C(=O)O` [Compound 138, (2R,4S)-4-[1-methyl-7-[4-(4-methylpiperazin-1-yl)anilino]-2-oxo-4H-pyrimido[4,5-d]pyrimidin-S-yl]-1-prop-2-enoyl-pyrrolidine-2-carboxylic acid], the negative-log IC50 (pIC50) at EGFR L858R and at EGFR L858R/T790M was under 6.00 in each case. The GI50 in experiment [1] and in experiment [2] was at least 2.5 µM in each case.
Consider `C=CC(=O)N1CCC(N2Cc3cnc(Nc4ccc(N5CCN(C)CC5)cc4)nc3N(C)C2=O)c2cccc(C#N)c21` (stereo not shown) [Compound 150, 4-[1-methyl-7-[4-(4-methylpiperazin-1-yl)anilino]-2-oxo-4H-pyrimido[4,5-d]pyrimidin-S-yl]-1-prop-2-enoyl-3,4-dihydro-2H-quinoline-8-carbonitrile], for which the pIC50 at EGFR L858R and at EGFR L858R/T790M was under 6.00 each time. Moreover, the GI50 in experiment [1] and in experiment [2] was 0.5 to 2.5 µM throughout.
`C=CC(=O)N1CCC(N2Cc3cnc(Nc4ccc(N5CCN(C)CC5)cc4)nc3N(C)C2=O)c2cnn(C)c21` (stereo not drawn) [Compound 132, 1-methyl-7-[4-(4-methylpiperazin-1-yl)anilino]-S-(1-methyl-7-prop-2-enoyl-5,6-dihydro-4H-pyrazolo[3,4-b]pyridin-4-yl)-4H-pyrimido[4,5-d]pyrimidin-2-one]: the pIC50 against EGFR L858R and on EGFR L858R/T790M was under 6.00 throughout. Also, the GI50 in experiment [1] and in experiment [2] was 0.1 to 0.5 µM in each case.
